Earlier results on one molecule are cited in patent US10603272B2, “Stimulation of appetite and treatment of anorexia in dogs and cats” (Kindred Biosciences, Inc., priority 2015, dated 2020).

Take `CN1CCN2c3ncccc3Cc3ccccc3C2C1` (stereo not shown) [mirtazapine]: the solubility in water entry was “insoluble in water”.
